Data as given in patent publication US20240122865A1, “Methods of Protecting RNA” (Pfizer Inc., priority 2021, published 2024).
pEC50: −log10 of the molar value.

Test system: FgenL model RNA
Experiment: TapeStation Assay, FgenL model RNA
Type: biochemical, Trichoderma atroviride
Set-up: Conc. FgenL#1 / Conc. FgenL#2: unit not given here
Details: FgenL RNA, 20 mM amino acids, 50 mM CAPS pH 11, 50° C. 15 min, vs Time 0
Outline: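 Chi18 or FgenL model RNA at 50 ng/μL in 50 mM CAPS pH 11 was mixed with amino acids (stocks in CAPS, readjusted to >pH 11) and heated at 50° C for 0 or 15 minutes; time-0 samples stayed on ice. Intact RNA was measured by capillary electrophoresis with optical detection and compared with a no-degradation baseline.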

| SMILES | % Control N = 1 [%] | % Control N = 2 [%] |
| --- | --- | --- |
| N[C@@H](Cc1ccccc1)C(=O)O [Phenylalanine] | 13.8 | 6.9 |
| O=C(O)[C@@H]1CCCN1 [Proline] | 21.8 | 20.3 |
| N[C@@H](CO)C(=O)O [Serine] | 37.7 | 31.4 |

Same assay, conditions: FgenL RNA, 20 mM amino acids, 50 mM CAPS pH 11, 50° C. 15 min, vs Time 0, Avg N=2

| SMILES | % Control Average [%] |
| --- | --- |
| N[C@@H](Cc1ccccc1)C(=O)O [Phenylalanine] | 10.4 |
| O=C(O)[C@@H]1CCCN1 [Proline] | 21.0 |
| N[C@@H](CO)C(=O)O [Serine] | 34.5 |

Same assay, conditions: intact FgenL RNA after 15 min at 50° C., 20 mM amino acids in 50 mM CAPS pH 11, run #1

| SMILES | Conc. FgenL#1 |
| --- | --- |
| N[C@@H](Cc1ccccc1)C(=O)O [Phenylalanine] | 4.76 |
| O=C(O)[C@@H]1CCCN1 [Proline] | 7.52 |
| N[C@@H](CO)C(=O)O [Serine] | 13 |

Same assay, conditions: intact FgenL RNA after 15 min at 50° C., 20 mM amino acids in 50 mM CAPS pH 11, run #2

| SMILES | Conc. FgenL#2 |
| --- | --- |
| N[C@@H](Cc1ccccc1)C(=O)O [Phenylalanine] | 2.4 |
| O=C(O)[C@@H]1CCCN1 [Proline] | 7.03 |
| N[C@@H](CO)C(=O)O [Serine] | 10.9 |

Test system: FgenL mRNA construct
Experiment: Size Exclusion Base Hydrolysis Degradation Assay, FgenL
Type: biochemical, Trichoderma atroviride
Details: FgenL 0.1 mg/mL, 25 mM amino acid, 50 mM CAPS, T=0, replicate 1
Outline: (§1)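 mRNA (diluted to 1.0 mg/mL) preincubated 1 h with amino acid, then brought to pH 11 with CAPS and NaOH at room temperature. Intact mRNA quantified by size-exclusion UPLC, peak area at 250 nm in the T=0 elution window, expressed as percentage of T=0 at 2, 10 and 24 hrs.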

| SMILES | T0 R1 peak area at 250 nm |
| --- | --- |
| N[C@@H](Cc1ccccc1)C(=O)O [Phenylalanine] | 18152 |
| O=C(O)[C@@H]1CCCN1 [Proline] | 17907 |
| N[C@@H](CO)C(=O)O [Serine] | 17044 |

Same assay, conditions: FgenL, 25 mM amino acid, 50 mM CAPS pH 11, room temperature, 2 hrs

| SMILES | T2 Avg, peak area as percentage of T=0 [%] |
| --- | --- |
| N[C@@H](Cc1ccccc1)C(=O)O [Phenylalanine] | 62.2 |
| O=C(O)[C@@H]1CCCN1 [Proline] | 16.6 |
| N[C@@H](CO)C(=O)O [Serine] | 46.6 |

Same assay, conditions: FgenL, 25 mM amino acid, 50 mM CAPS pH 11, room temperature, 2 hrs, replicate 1

| SMILES | T2 R1 peak area at 250 nm |
| --- | --- |
| N[C@@H](Cc1ccccc1)C(=O)O [Phenylalanine] | 12662 |
| O=C(O)[C@@H]1CCCN1 [Proline] | 3380 |
| N[C@@H](CO)C(=O)O [Serine] | 7928 |

Same assay, conditions: FgenL, 25 mM amino acid, 50 mM CAPS pH 11, room temperature, 10 hrs

| SMILES | T10 Avg, peak area as percentage of T=0 [%] |
| --- | --- |
| N[C@@H](Cc1ccccc1)C(=O)O [Phenylalanine] | 1.7 |
| O=C(O)[C@@H]1CCCN1 [Proline] | 0.0 |
| N[C@@H](CO)C(=O)O [Serine] | 11.3 |

Same assay, conditions: FgenL, 25 mM amino acid, 50 mM CAPS pH 11, room temperature, 10 hrs, replicate 1

| SMILES | T10 R1 peak area at 250 nm |
| --- | --- |
| N[C@@H](Cc1ccccc1)C(=O)O [Phenylalanine] | 605 |
| O=C(O)[C@@H]1CCCN1 [Proline] | 0 |
| N[C@@H](CO)C(=O)O [Serine] | 0 |

Same assay, conditions: FgenL, 25 mM amino acid, 50 mM CAPS pH 11, room temperature, 24 hrs

| SMILES | T24 Avg, peak area as percentage of T=0 [%] |
| --- | --- |
| N[C@@H](Cc1ccccc1)C(=O)O [Phenylalanine] | 0.0 |
| O=C(O)[C@@H]1CCCN1 [Proline] | 0.0 |
| N[C@@H](CO)C(=O)O [Serine] | 0.0 |

Same assay, conditions: FgenL, 25 mM amino acid, 50 mM CAPS pH 11, room temperature, 24 hrs, replicate 1

| SMILES | T24 R1 peak area at 250 nm |
| --- | --- |
| N[C@@H](Cc1ccccc1)C(=O)O [Phenylalanine] | 0 |
| O=C(O)[C@@H]1CCCN1 [Proline] | 0 |
| N[C@@H](CO)C(=O)O [Serine] | 0 |

Same assay, conditions: FgenL, 25 mM amino acid, T=0 (reference)

| SMILES | T0 Avg, peak area as percentage of T=0 [%] |
| --- | --- |
| N[C@@H](Cc1ccccc1)C(=O)O [Phenylalanine] | 100.0 |
| O=C(O)[C@@H]1CCCN1 [Proline] | 100.0 |
| N[C@@H](CO)C(=O)O [Serine] | 100.0 |

Test system: Chi18 mRNA construct
Experiment: Size Exclusion Base Hydrolysis Degradation Assay, Chi18
Type: biochemical, Trichoderma atroviride
Details: Chi18 0.1 mg/mL, 25 mM amino acid, 50 mM CAPS, T=0, replicate 1
Outline: as §1

| SMILES | T0 R1 peak area at 250 nm |
| --- | --- |
| N[C@@H](Cc1ccccc1)C(=O)O [Phenylalanine] | 30537 |
| O=C(O)[C@@H]1CCCN1 [Proline] | 12033 |
| N[C@@H](CO)C(=O)O [Serine] | 31778 |

Same assay, conditions: Chi18, 25 mM amino acid, 50 mM CAPS pH 11, room temperature, 2 hrs

| SMILES | T2 Avg, peak area as percentage of T=0 [%] |
| --- | --- |
| N[C@@H](Cc1ccccc1)C(=O)O [Phenylalanine] | 72.1 |
| O=C(O)[C@@H]1CCCN1 [Proline] | 72.0 |
| N[C@@H](CO)C(=O)O [Serine] | 150.4 |

Same assay, conditions: Chi18, 25 mM amino acid, 50 mM CAPS pH 11, room temperature, 2 hrs, replicate 1

| SMILES | T2 R1 peak area at 250 nm |
| --- | --- |
| N[C@@H](Cc1ccccc1)C(=O)O [Phenylalanine] | 22175 |
| O=C(O)[C@@H]1CCCN1 [Proline] | 7330 |
| N[C@@H](CO)C(=O)O [Serine] | 19639 |

Same assay, conditions: Chi18, 25 mM amino acid, 50 mM CAPS pH 11, room temperature, 10 hrs

| SMILES | T10 Avg, peak area as percentage of T=0 [%] |
| --- | --- |
| N[C@@H](Cc1ccccc1)C(=O)O [Phenylalanine] | 16.3 |
| O=C(O)[C@@H]1CCCN1 [Proline] | 28.5 |
| N[C@@H](CO)C(=O)O [Serine] | 0.0 |

Same assay, conditions: Chi18, 25 mM amino acid, 50 mM CAPS pH 11, room temperature, 10 hrs, replicate 1

| SMILES | T10 R1 peak area at 250 nm |
| --- | --- |
| N[C@@H](Cc1ccccc1)C(=O)O [Phenylalanine] | 3615 |
| O=C(O)[C@@H]1CCCN1 [Proline] | 2712 |
| N[C@@H](CO)C(=O)O [Serine] | 0 |

Same assay, conditions: Chi18, 25 mM amino acid, 50 mM CAPS pH 11, room temperature, 24 hrs

| SMILES | T24 Avg, peak area as percentage of T=0 [%] |
| --- | --- |
| N[C@@H](Cc1ccccc1)C(=O)O [Phenylalanine] | 0.0 |
| O=C(O)[C@@H]1CCCN1 [Proline] | 0.0 |
| N[C@@H](CO)C(=O)O [Serine] | 0.0 |

Same assay, conditions: Chi18, 25 mM amino acid, 50 mM CAPS pH 11, room temperature, 24 hrs, replicate 1

| SMILES | T24 R1 peak area at 250 nm |
| --- | --- |
| N[C@@H](Cc1ccccc1)C(=O)O [Phenylalanine] | 0 |
| O=C(O)[C@@H]1CCCN1 [Proline] | 0 |
| N[C@@H](CO)C(=O)O [Serine] | 0 |

Same assay, conditions: Chi18, 25 mM amino acid, T=0 (reference)

| SMILES | T0 Avg, peak area as percentage of T=0 [%] |
| --- | --- |
| N[C@@H](Cc1ccccc1)C(=O)O [Phenylalanine] | 100.0 |
| O=C(O)[C@@H]1CCCN1 [Proline] | 100.0 |
| N[C@@H](CO)C(=O)O [Serine] | 100.0 |

Target: Chi18 model RNA
Experiment: Droplet Digital Polymerase Chain Reaction (ddPCR) Assay, Chi18
Type: biochemical, Trichoderma atroviride
Details: percent protection, pH 11.0, 30° C., 16 hours, n = 2
Outline: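 Chi18 (25 fg/μL) or FgenL (10 fg/μL) RNA at pH 11.0 incubated 16 h with amino acids (10-point half-log series, ~300 mM top stock in CAPS), at 30° C or 44° C respectively. Intact RNA reverse-transcribed, ddPCR 5′-positive droplet fraction taken as protection; EC50 from four-parameter logistic fit.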

| SMILES | pEC50 |
| --- | --- |
| N[C@@H](Cc1ccccc1)C(=O)O [Phenylalanine] | < 1.74 |
| O=C(O)[C@@H]1CCCN1 [Proline] | < 1.52 |
| N[C@@H](CO)C(=O)O [Serine] | < 1.52 |

Test system: FgenL model RNA
Experiment: not given
Type: biochemical, Trichoderma atroviride
Details: percent protection, pH 11.0, 44° C., 16 hours, n = 2

| SMILES | pEC50 |
| --- | --- |
| N[C@@H](Cc1ccccc1)C(=O)O [Phenylalanine] | < 1.52 |
| O=C(O)[C@@H]1CCCN1 [Proline] | < 1.52 |
| N[C@@H](CO)C(=O)O [Serine] | < 1.52 |
